Among the test systems are HOP-92 NSCLC; COLO 205 colon; HOP-62 NSCLC; 786-0 renal; SF-268 CNS; NCI-H460 lung; SK-MEL-28 melanoma; RPMI-8226 leukemia; UO-31 renal; SK-OV-3 ovarian.
Holding throughout (test): NCI tumour cell line growth inhibition, 48 h

Several values for one entry are separate records, joined by “and”; a condition that tells them apart may be missing. Equal values may be shown once.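 Five compound concentrations were applied to cells in 96-well plates for 48 hours; endpoints were derived by simple linear interpolation of the resulting dose-response curve. Here, GI50 denotes the concentration required for 50% inhibition of growth. At the TGI there is no net growth.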 Some results are limits rather than exact numbers.

For the molecule `CCOC(=O)C(=[N+]=[N-])[Si](C)(C)C`, the TGI in the test on HOP-92 NSCLC was above 100 µM; in the test on COLO 205 colon, above 100 µM; with HOP-62 NSCLC, 49.7 µM; with 786-0 renal it was above 100 µM; with SF-268 CNS, 59.7 µM; with NCI-H460 lung it was above 100 µM. The TGI with SK-MEL-28 melanoma came out at 45.6 µM.
As for `C=C(Cl)C(Br)(CCl)CCC(Br)C(C)(C)Cl` (centres undefined), the GI50 in the test on COLO 205 colon was 2.13 µM; with 786-0 renal, 1.67 µM; with UO-31 renal it was 2.17 µM; with SK-MEL-28 melanoma, 5.88 µM. Moreover, the TGI was 4.64 µM in the test with COLO 205 colon; 7.66 µM in the test with HOP-62 NSCLC; 3.73 µM and 3.21 µM in the test on 786-0 renal; 8.32 µM and 8.82 µM in the test on SF-268 CNS; 3.06 µM in the test with RPMI-8226 leukemia; 20.7 µM in the test on NCI-H460 lung. The TGI in the test on UO-31 renal is 8.19 µM and 4.53 µM; in the test on SK-OV-3 ovarian it was 27.1 µM; in the test on SK-MEL-28 melanoma, 14.2 µM.
Take `C1CN2CCN3CCN4CCN1[P+]243`: the TGI with COLO 205 colon, in the test on HOP-62 NSCLC, with 786-0 renal, in the test on RPMI-8226 leukemia, in the test with NCI-H460 lung and in the test with UO-31 renal was above 100 µM throughout. The TGI in the test with SK-OV-3 ovarian and with SK-MEL-28 melanoma was above 100 µM each time.
For `Cc1[nH]c2ccccc2c1C(=O)/C=C/c1ccccc1O`, the TGI in the test with COLO 205 colon, in the test with HOP-62 NSCLC, in the test on 786-0 renal, in the test with SF-268 CNS, in the test on NCI-H460 lung and with UO-31 renal was above 100 µM throughout. Besides, the TGI in the test with SK-OV-3 ovarian and in the test with SK-MEL-28 melanoma was above 100 µM in each case.
In the case of `[N-]=[N+]=N[C@H]1C[C@@H](CO)O[C@H]1n1cnc2c(N)ncnc21`, the TGI in the test on HOP-92 NSCLC, in the test with COLO 205 colon, in the test with HOP-62 NSCLC, in the test on 786-0 renal, with SF-268 CNS and with NCI-H460 lung was above 100 µM in each case. For the same molecule, the TGI with UO-31 renal and in the test on SK-MEL-28 melanoma was above 100 µM each time.
For `CC12CP(=O)(c3ccccc3)CC1C2(Cl)Cl` (centres undefined), the TGI in the test with COLO 205 colon, in the test on HOP-62 NSCLC, in the test with 786-0 renal, in the test with RPMI-8226 leukemia, in the test with NCI-H460 lung and in the test with SK-OV-3 ovarian was above 100 µM each time. Further, in the test on SK-MEL-28 melanoma, the TGI was above 100 µM.
In the case of `O=C(Nc1ccncc1)C(=O)c1cn(S(=O)(=O)c2ccc(F)cc2)c2ccccc12`, the GI50 was 24.7 µM in the test on COLO 205 colon; 3.02 µM in the test with HOP-62 NSCLC; 4.55 µM with 786-0 renal; 4.4 µM in the test with SF-268 CNS; 2.54 µM in the test with RPMI-8226 leukemia; 16.3 µM in the test with NCI-H460 lung. Further, the results for the GI50 in the test with UO-31 renal, in the test with SK-OV-3 ovarian and in the test on SK-MEL-28 melanoma were 2.64 µM, 22.3 µM and 6.82 µM, respectively. Besides, the TGI in the test with COLO 205 colon was above 100 µM; in the test on HOP-62 NSCLC, above 100 µM; in the test on 786-0 renal it was 79.7 µM; with SF-268 CNS, above 100 µM; in the test with RPMI-8226 leukemia it was above 100 µM; in the test with NCI-H460 lung it was above 100 µM. In addition, the TGI in the test on UO-31 renal is 48.3 µM; with SK-OV-3 ovarian it was 85.9 µM; in the test on SK-MEL-28 melanoma, 36.2 µM.
Take `CCOc1ccc(NC(=O)CC#N)cc1`: the TGI in the test with COLO 205 colon, with HOP-62 NSCLC, in the test on 786-0 renal, in the test with SF-268 CNS, in the test on NCI-H460 lung and with UO-31 renal was above 100 µM in each case. Besides, the TGI with SK-OV-3 ovarian and with SK-MEL-28 melanoma was above 100 µM throughout.
On to `CN(C)C(n1cc2c(c1)-c1ccc(Cl)cc1C(c1ccccc1F)=NC2)n1cc2c(c1)-c1ccc(Cl)cc1C(c1ccccc1F)=NC2`, for which the TGI with COLO 205 colon, with HOP-62 NSCLC, in the test on 786-0 renal, in the test with SF-268 CNS, with RPMI-8226 leukemia and in the test with NCI-H460 lung was above 100 µM throughout. Moreover, the TGI with UO-31 renal, with SK-OV-3 ovarian and in the test with SK-MEL-28 melanoma was above 100 µM throughout.
With `COc1ccc(Nc2nnc(-c3cc(O)ccc3O)s2)cc1`, the GI50 was above 50 µM in the test on COLO 205 colon; above 50 µM in the test on 786-0 renal; 16.3 µM in the test with SF-268 CNS; 8.67 µM with RPMI-8226 leukemia; 40.4 µM in the test with NCI-H460 lung; 47.3 µM in the test on UO-31 renal. Further, the GI50 in the test on SK-MEL-28 melanoma was 27.1 µM. Besides, the TGI in the test with COLO 205 colon is above 50 µM; in the test on 786-0 renal, above 50 µM; in the test on SF-268 CNS it was above 50 µM; in the test on RPMI-8226 leukemia, 21.1 µM; in the test with NCI-H460 lung it was above 50 µM; in the test with UO-31 renal it was above 50 µM. The same molecule showed a TGI in the test with SK-MEL-28 melanoma above 50 µM.
Regarding `COc1cccc(C2=NC(C(C)C)CO2)c1` (centres undefined), the TGI with COLO 205 colon, with HOP-62 NSCLC, in the test with 786-0 renal, in the test with SF-268 CNS, in the test with RPMI-8226 leukemia and in the test on NCI-H460 lung was above 100 µM each time. Moreover, the TGI with UO-31 renal, in the test on SK-OV-3 ovarian and in the test with SK-MEL-28 melanoma was above 100 µM throughout.
Turning to `O=C1/C(=C/c2cccc(Cl)c2Cl)N=C(c2ccccc2)N1C1CC1`, the GI50 in the test with COLO 205 colon is 15.1 µM; in the test on HOP-62 NSCLC it was 8.37 µM; in the test on 786-0 renal, 7.29 µM; in the test with SF-268 CNS, 10.3 µM; with RPMI-8226 leukemia, 3.88 µM; in the test with NCI-H460 lung it was 15.3 µM. In the test on UO-31 renal, the GI50 was 28.5 µM. The TGI in the test with COLO 205 colon is above 50 µM; in the test with HOP-62 NSCLC, 16.5 µM; with 786-0 renal it was 14.4 µM; in the test on SF-268 CNS it was 22.3 µM; with RPMI-8226 leukemia, 14.5 µM; in the test on NCI-H460 lung, above 50 µM. Besides, the TGI in the test on UO-31 renal is above 50 µM.
As to `Cc1nn(-c2ccc(Cl)cc2)c2nc3c(nc12)C(=O)c1ccccc1-3`, the GI50 is above 100 µM with COLO 205 colon; 13.7 µM in the test with HOP-62 NSCLC; 75.3 µM in the test with 786-0 renal; above 100 µM with SF-268 CNS; above 100 µM with RPMI-8226 leukemia; above 100 µM in the test on UO-31 renal. For the same molecule, the GI50 is 47.3 µM in the test with SK-OV-3 ovarian and above 100 µM with SK-MEL-28 melanoma. Moreover, the TGI with COLO 205 colon, with HOP-62 NSCLC, in the test with 786-0 renal, in the test with SF-268 CNS, in the test on RPMI-8226 leukemia and in the test on UO-31 renal was above 100 µM in each case. For the same molecule, the TGI with SK-OV-3 ovarian and in the test with SK-MEL-28 melanoma was above 100 µM each time.
As to `COc1cc(NCc2ccc3nc(N)nc(N)c3c2C)cc(OC)c1OC` (tested in a mixture with another compound), the GI50 in the test with HOP-92 NSCLC was 0.0233 µM; in the test on 786-0 renal, 0.0145 µM and 0.025 µM; with NCI-H460 lung, 0.000169 µM; in the test with SK-OV-3 ovarian it was 0.0189 µM. The TGI in the test with COLO 205 colon is 45.1 µM; in the test on SF-268 CNS, 66.8 µM; in the test with NCI-H460 lung, 34.8 µM; in the test with SK-MEL-28 melanoma, 50.6 µM.
In the case of `Cc1cc(N(CCC#N)CCC#N)ccc1N=Nc1ccc(C(=O)O)cc1`, the TGI with COLO 205 colon, in the test on HOP-62 NSCLC, with 786-0 renal, with SF-268 CNS, in the test on RPMI-8226 leukemia and in the test on UO-31 renal was above 100 µM in each case. Also, the TGI with SK-OV-3 ovarian and with SK-MEL-28 melanoma was above 100 µM in each case.
For `O=C1/C(=C/c2ccc3c(c2)OCO3)SC2C=Nc3ccccc3N12` (centres undefined), the TGI with HOP-92 NSCLC, in the test on COLO 205 colon, in the test on HOP-62 NSCLC, with 786-0 renal, in the test with SF-268 CNS and in the test with NCI-H460 lung was above 100 µM throughout. Also, the TGI in the test on UO-31 renal and with SK-MEL-28 melanoma was above 100 µM each time.
Turning to `O=C1Nc2ccccc2/C1=N\[O-].O=C1Nc2ccccc2/C1=N\[O-].[Cu+2]`, the GI50 in the test with COLO 205 colon, in the test with HOP-62 NSCLC, in the test with 786-0 renal, in the test on SF-268 CNS, in the test with RPMI-8226 leukemia and in the test with NCI-H460 lung was above 100 µM in each case. Moreover, the GI50 in the test on UO-31 renal, with SK-OV-3 ovarian and in the test with SK-MEL-28 melanoma was above 100 µM throughout. For the same molecule, the TGI in the test on COLO 205 colon, with HOP-62 NSCLC, with 786-0 renal, in the test with SF-268 CNS, with RPMI-8226 leukemia and in the test with NCI-H460 lung was above 100 µM throughout. For the same molecule, the TGI with UO-31 renal, in the test on SK-OV-3 ovarian and in the test with SK-MEL-28 melanoma was above 100 µM throughout.
Consider `O=C1OCC2=C1C(c1cccc(Br)c1)c1cc3c(cc1N2CCO)CCC3` (centres undefined), for which the GI50 with COLO 205 colon is 0.111 µM; with HOP-62 NSCLC it was 0.0888 µM; in the test with 786-0 renal, 0.201 µM; with SF-268 CNS it was 0.109 µM; in the test with RPMI-8226 leukemia, 0.183 µM; with NCI-H460 lung, 0.101 µM. The GI50 with UO-31 renal was 0.0997 µM; in the test with SK-OV-3 ovarian it was 0.102 µM; in the test on SK-MEL-28 melanoma it was 0.0564 µM. Also, the TGI stood at 0.263 µM in the test with COLO 205 colon; 7.11 µM in the test with HOP-62 NSCLC; 6.22 µM with 786-0 renal; 6.47 µM with SF-268 CNS; 10 µM with RPMI-8226 leukemia; 5.19 µM in the test on NCI-H460 lung. In addition, the TGI in the test with UO-31 renal was determined as 8.2 µM; in the test with SK-OV-3 ovarian, 1.58 µM; with SK-MEL-28 melanoma, 10.3 µM.

The values above are taken from PubChem BioAssay (NCI).
